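Briefly, cells in 96-well plates were exposed to five compound concentrations for 48 h, and endpoints were estimated by linear interpolation. At the TGI there is no net growth.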
Legend:
Experiment in all cases: growth of human tumour cells (NCI), 48 h
A549 NSCLC = system: A549 NSCLC
ACHN renal = system: ACHN renal
HCT-15 colon = system: HCT-15 colon
HL-60(TB) leukemia = system: HL-60(TB) leukemia
HOP-92 NSCLC = system: HOP-92 NSCLC
HS 578T breast = system: HS 578T breast
HT29 colon = system: HT29 colon
K-562 leukemia = system: K-562 leukemia
KM12 colon = system: KM12 colon
LOX IMVI melanoma = system: LOX IMVI melanoma
MDA-MB-435 = system: MDA-MB-435
MDA-N = system: MDA-N
OVCAR-8 ovarian = system: OVCAR-8 ovarian
SF-268 CNS = system: SF-268 CNS
SF-295 CNS = system: SF-295 CNS
U251 CNS = system: U251 CNS
UACC-257 melanoma = system: UACC-257 melanoma
UO-31 renal = system: UO-31 renal
MDA-MB-231 breast = system: MDA-MB-231 breast

SMILES	TGI (A549 NSCLC) [µM]	TGI (ACHN renal) [µM]	TGI (HCT-15 colon) [µM]	TGI (HL-60(TB) leukemia) [µM]	TGI (HOP-92 NSCLC) [µM]	TGI (HS 578T breast) [µM]	TGI (HT29 colon) [µM]	TGI (K-562 leukemia) [µM]	TGI (KM12 colon) [µM]	TGI (LOX IMVI melanoma) [µM]	TGI (MDA-MB-435) [µM]	TGI (MDA-N) [µM]	TGI (OVCAR-8 ovarian) [µM]	TGI (SF-268 CNS) [µM]	TGI (SF-295 CNS) [µM]	TGI (U251 CNS) [µM]	TGI (UACC-257 melanoma) [µM]	TGI (UO-31 renal) [µM]	TGI (MDA-MB-231 breast) [µM]
O=[N+]([O-])c1ccccc1N=Nc1c(O)sc2ccccc12	> 100	> 100	> 100	> 100	> 100	> 100	> 100	> 100	> 100	> 100	> 100	> 100	> 100	> 100	> 100	> 100	> 100	> 100	
CC[C@]12C=CCN3CC[C@@]4(c5ccc(OC)cc5N(C)[C@H]4[C@@](O)(C(=O)OC)[C@@H]1OC(C)=O)[C@@H]32	> 200		> 63.2	> 200	132		> 200	> 200	> 200	> 200			> 11.2	> 200	> 200	> 200	> 200	> 92.8	
CCOCNC(=O)N(COCC)COCC	> 100	> 100	> 100	> 100			> 100	> 100	> 100	> 100			> 100	> 100	> 100		> 100	> 100	
Cc1cc(NS(=O)(=O)c2ccc(N=Nc3c(O)c(C(=O)O)cc4ccccc34)cc2)nc(C)n1	> 100	> 100	> 100	> 100	> 100	> 100	> 100	> 100	> 100		> 100		> 100	> 100	> 100	> 100	> 100	> 100	> 100
CC(=O)[C@]1(O)Cc2c(O)c3c(c(O)c2C(OC2OC(C)C(O)C(O)C2F)C1)C(=O)c1ccccc1C3=O (some centres not stated)				< 0.0303	3.92	1.62		1.25	5.64	11.6	1.95	2.67	16.1	2.28	0.324	0.996	2.38	0.0279	7.21
Oc1ccc2ccccc2c1N=Nc1ccc(F)cc1	> 100	> 100	> 100	> 100	> 100		> 100	> 100	> 100	> 100			> 100	> 100	> 100	> 100		> 100	
CC(C)CCN=c1cc2n(-c3ccc(Cl)cc3)c3ccccc3nc-2cc1Nc1ccc(Cl)cc1	> 56.4		23.2	11.1	16.8		19.8	26.4	> 41.2	8.03			33.7	> 100	44.2	26.5	19.7	18.9	
Cc1ccc2nc3ccccc3c(C3C4C(=O)N(c5ccc(Br)cc5Cl)C(=O)C4ON3C(C(N)=O)c3ccccc3)c2c1 (configuration not stated)	> 25	15.3	19.5	> 25	> 25	> 25	> 25	> 25	> 25	> 25	> 25	23.6	> 25	> 25	> 25	> 25	> 25	12.9	> 25
CC[N+](C)(CC)Cc1ccccc1[N+](=O)[O-]	> 100	> 100	> 100	> 100	> 100	> 100	> 100	> 100	> 100	> 100	> 100	> 100	> 100	> 100	> 100	> 100	> 100	> 100	> 100
O=c1c2ccccc2nnn1-c1n[nH]c2ccccc12	> 100	> 100	> 100		> 100	> 100	> 100		> 100		> 100			> 100	> 100	> 100	> 100	> 100	> 100
